The record followed here is PMC11087268, “A folate inhibitor exploits metabolic differences in Pseudomonas aeruginosa for narrow-spectrum targeting” (Nature Microbiology, 2024).

Data set [1] concerns sheep red blood cells. The data set is described as follows: Haemolysis. The note with it: biologically relevant concentrations. It is filed as cell-based. The procedure: (§1) Samples were treated at 37 °C with shaking for 1 h and then centrifuged. Supernatants were collected and absorbances were measured at 405 nm in a Tecan InfiniteM200 Pro microplate reader.
Data set [2] can be described thus: Haemolysis. The note with it: sheep, defibrinated sheep red blood cells, 1 h, vs Triton X-100 100% lysis. Type of data set: cell-based, sheep. The procedure:
as §1

As to `Nc1nc(N)c2c(ccc3c2ccn3Cc2ccnc(F)c2)n1` [fluorofolin], the “permeabilization of red blood cell membranes” value in data set [1] is recorded as “did not cause significant permeabilization”. Further, the hemolysis at 1 h, 0.78125 ug/mL in data set [2] (0.78125 ug/mL) was determined as 0.966%. For the same compound, in data set [2] (1.5625 ug/mL), the hemolysis at 1 h, 1.5625 ug/mL stood at 0.655%. In addition, the hemolysis at 1 h, 3.125 ug/mL in data set [2] (3.125 ug/mL) is -0.334%. Moreover, the hemolysis at 1 h, 6.25 ug/mL in data set [2] (6.25 ug/mL) is 0.353%. For the same compound, the hemolysis at 1 h, 12.5 ug/mL in data set [2] (12.5 ug/mL) is -0.799%. For the same compound, the hemolysis at 1 h, 25 ug/mL in data set [2] (25 ug/mL) is -0.239%. Further, in data set [2] (50 ug/mL), the hemolysis at 1 h, 50 ug/mL came out at 13.7%.
